{
  "source": "paper PMC5108082",
  "about": "“Pharmacokinetics, toxicity, and cytochrome P450 modulatory activity of plumbagin” (BMC Pharmacology & Toxicology, 2016)",
  "key": {"CYP1A2 mRNA": {"test_system": "CYP1A2 mRNA", "test": "CYP1A2 mRNA expression in livers of treated mice (RT-PCR)", "type": "in vivo, mouse", "conditions": "mice, 25, 12.5, 6.25 mg/kg daily oral for 28 days vs control", "procedure": "Mice were divided into four groups (3 male mice each). Mice in the treated groups were fed with plumbagin at a daily oral dose of 25, 12.5, or 6.25 mg/kg body weight (1 mL) for 28 days. The control group received a daily oral dose (1 mL) of 20 % Tween-80 for 28 days. At the end of the experiment period, all animals were sacrificed under ether anesthesia and livers were removed for investigation of the modulatory effect of plumbagin on hepatic CYP1A2 and CYP3A11.\nThe liver sample isolated from each mouse was rinsed with ice-cold, 0.9 % NaCl and total RNA was prepared using Trizol^TM reagent according to the manufacturer’s protocol (Invitrogen, Karlsruhe, Germany). Briefly, the sample was homogenized in TRIZOL reagent (1 mL) per 50–100 mg of tissue. The homogenized sample was incubated at 25 °C for 5 min and chloroform (0.2 mL/1 mL of TRIZOL reagent) was added. The sample was thoroughly mixed and incubated at 25 °C for 3 min. Following centrifugation (12,000 × g for 15 min, 2–8 °C), the sample was separated into a lower red phenol-chloroform phase, an interphase, and a colorless upper aqueous phase. […] The RNA pellets were dried and dissolved in 20 μL DEPC-treated water and the concentrations were determined using NanoDrop Spectrophotometry (NanoDrop Technologies, Wilmington, DE, USA). […]"}, "[1]": {"test_system": "K1 chloroquine-resistant P. falciparum", "conditions": "K1 clone; read-out: median IC50; cited from earlier work"}, "[2]": {"test_system": "3D7 chloroquine-sensitive P. falciparum", "conditions": "3D7 clone; read-out: median IC50; cited from earlier work"}, "parasitemia": {"test_system": "parasitemia", "design": "method as in PMID 24410949", "conditions": "25 mg/kg body weight given for 4 days; cited from earlier work"}, "[3]": {"test_system": "human colon epithelial cell monolayer Caco-2", "conditions": "cited from earlier work"}, "CYP3A4": {"test_system": "CYP3A4", "conditions": "cited from earlier work"}, "[4]": {"conditions": "rat, in vivo, cited from earlier work"}, "mice": {"test_system": "mice", "conditions": "cited from earlier work"}, "[5]": {"test_system": "platelet adhesion and coagulation", "conditions": "rats, daily doses of 2 mg/kg body weight; plumbagin as a component of Plumbago zeylanica; cited from earlier work"}},
  "data": [
    {"smiles": "CC1=CC(=O)c2c(O)cccc2C1=O", "note": "[plumbagin, 5-hydroxy-2-methyl-1,4-naphthoquinone]", "values": [
      {"measurement": "modulation of CYP1A2 mRNA expression", "setting": "CYP1A2 mRNA", "value": "not found to induce or inhibit"},
      {"measurement": "modulation of CYP1A2 mRNA expression", "setting": "CYP1A2 mRNA; listed as Plumbagin", "value": "did not significantly modulate"},
      {"measurement": "IC50", "setting": "[1]", "value": 370, "unit": "nM"},
      {"measurement": "IC50", "setting": "[2]", "value": 580, "unit": "nM"},
      {"measurement": "antimalarial activity in vivo (reduction of parasitemia, prolongation of survival time)", "setting": "parasitemia", "value": "weak"},
      {"measurement": "influence of efflux protein on permeability", "setting": "[3]; Caco-2", "value": "no influence of efflux protein"},
      {"measurement": "permeability", "setting": "[3]; Caco-2", "value": "moderate"},
      {"measurement": "transport mechanism", "setting": "[3]", "value": "passive transport"},
      {"measurement": "IC50", "setting": "CYP3A4", "value": 2370, "unit": "nM"},
      {"measurement": "oral bioavailability", "setting": "[4]; po", "value": 39, "unit": "%"},
      {"measurement": "elimination half-life (t1/2), mean", "setting": "[4]", "value": 17, "unit": "h"},
      {"measurement": "mean residence time (MRT), mean", "setting": "[4]", "value": 22, "unit": "h"},
      {"measurement": "time to reach maximum blood concentration (tmax)", "setting": "[4]", "value": 2.5, "unit": "h"},
      {"measurement": "maximal tolerated dose, subacute toxicity testing", "setting": "mice; mice, for 14 days, ref our previous study", "value": 25, "unit": "mg/kg body weight"},
      {"measurement": "types of toxicity reported", "setting": "mice; mice", "value": "diarrhea, skin rashes, leukocytosis, increased serum phosphatase levels"},
      {"measurement": "maximal tolerated dose, acute toxicity testing", "setting": "mice; mice, ref our previous study", "value": 100, "unit": "mg/kg body weight"},
      {"measurement": "hepatotoxicity", "setting": "mice; mouse, in vivo", "value": "marked increased plasma ALT and AST levels"},
      {"measurement": "platelet adhesion and coagulation", "setting": "[5]", "value": "significantly decreased"}
    ]}
  ]
}
